From PubChem BioAssay AID1963422 (Molecular Pharmacology Branch, DTP, NCI, 2024)
pIC50: −log10 of the molar value.

Test system: 463943-066-T-J2-PDC complex spheroid growth
Test: Anticancer human tumor 463943-066-T-J2-PDC patient-derived colon adenocarcinoma cell line growth inhibition [Asc]
Details: for pIC50: curve of first compound; for viability, T/C: stronger effect = lower value
In short: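 Spheroid model: tumor line + HUVEC + hMSC. Single agents and combinations; top conc. at/near clinical Cmax (10 microM if undetermined), half-log dilutions. DMSO stocks at 800-fold test concentration.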

[1] = second compound 0.00949 µM, first compound 0.00316 µM
[2] = second compound 0.00949 µM, first compound 0.01 µM
[3] = second compound 0.00949 µM, first compound 0.0316 µM
[4] = second compound 0.00949 µM, first compound 0.1 µM
[5] = second compound 0.03 µM, first compound 0.00316 µM
[6] = second compound 0.03 µM, first compound 0.01 µM
[7] = second compound 0.03 µM, first compound 0.0316 µM
[8] = second compound 0.03 µM, first compound 0.1 µM
[9] = second compound 0.0949 µM, first compound 0.00316 µM
[10] = second compound 0.0949 µM, first compound 0.01 µM
[11] = second compound 0.0949 µM, first compound 0.0316 µM
[12] = second compound 0.0949 µM, first compound 0.1 µM
[13] = second compound 0.3 µM, first compound 0.00316 µM
[14] = second compound 0.3 µM, first compound 0.01 µM
[15] = second compound 0.3 µM, first compound 0.0316 µM
[16] = second compound 0.3 µM, first compound 0.1 µM
[17] = second compound 0.949 µM, first compound 0.00316 µM
[18] = second compound 0.949 µM, first compound 0.01 µM
[19] = second compound 0.949 µM, first compound 0.0316 µM
[20] = second compound 0.949 µM, first compound 0.1 µM
[21] = second compound 3 µM, first compound 0.00316 µM
[22] = second compound 3 µM, first compound 0.01 µM
[23] = second compound 3 µM, first compound 0.0316 µM
[24] = second compound 3 µM, first compound 0.1 µM
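Note: compound exposure lasted 7 days.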
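Throughout, for viability, T/C: 100% = DMSO vehicle control wells.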

Work on `COc1c(OCCCN2CCOCC2)ccc2c3n(c(=NC(=O)c4cnc(N)nc4)nc12)CCN3` + CCN1C(C(=O)NC23CCC(C(=O)O)(CC2)CC3)C(c2cccc(Cl)c2F)C2(C(=O)Nc3cc(Cl)ccc32)C12CCCCC2 yielded a pIC50 (second compound 0.00949 µM) of 6.39, a pIC50 (second compound 0.03 µM) of 6.57 and a pIC50 (second compound 0.0949 µM) of 6.64. The pIC50 (second compound 0.3 µM) was 7.15, the pIC50 (second compound 0.949 µM) was 7.35 and the pIC50 (second compound 3 µM) was 7.22. For the same compound, the viability, T/C [1] was 89.5%, the viability, T/C [2] was 82.9% and the viability, T/C [3] was 74%. The viability, T/C [4] was 69.2%, the viability, T/C (second compound 0.00949 µM, first compound 0.316 µM) was 51.2% and the viability, T/C (second compound 0.00949 µM, first compound 1 µM) was 39.4%. For the same compound, the viability, T/C [5] was 95.3%, the viability, T/C [6] was 88.5% and the viability, T/C [7] was 71.5%. For the same compound, the viability, T/C [8] was 61.2%, the viability, T/C (second compound 0.03 µM, first compound 0.316 µM) was 50.3% and the viability, T/C (second compound 0.03 µM, first compound 1 µM) was 33.7%. It also gave a viability, T/C [9] of 87.3%, a viability, T/C [10] of 84.1% and a viability, T/C [11] of 71.4%. For the same compound, the viability, T/C [12] was 59.3%, the viability, T/C (second compound 0.0949 µM, first compound 0.316 µM) was 47.4% and the viability, T/C (second compound 0.0949 µM, first compound 1 µM) was 33.6%. It also gave a viability, T/C [13] of 73%, a viability, T/C [14] of 72.5% and a viability, T/C [15] of 61.9%. The viability, T/C [16] was 44.4%, the viability, T/C (second compound 0.3 µM, first compound 0.316 µM) was 37.1% and the viability, T/C (second compound 0.3 µM, first compound 1 µM) was 32%. It also gave a viability, T/C [17] of 68.5%, a viability, T/C [18] of 62.5% and a viability, T/C [19] of 53.4%. For the same compound, the viability, T/C [20] was 42.2%, the viability, T/C (second compound 0.949 µM, first compound 0.316 µM) was 35.1% and the viability, T/C (second compound 0.949 µM, first compound 1 µM) was 30.4%. It also gave a viability, T/C [21] of 65.3%, a viability, T/C [22] of 64.4% and a viability, T/C [23] of 53.7%. For the same compound, the viability, T/C [24] was 45.4%, the viability, T/C (second compound 3 µM, first compound 0.316 µM) was 39.1% and the viability, T/C (second compound 3 µM, first compound 1 µM) was 29.8%.
In the case of `NC(=O)C(=Cn1cnc(-c2cc(C(F)(F)F)cc(C(F)(F)F)c2)n1)c1cncnc1` + CCN1C(C(=O)NC23CCC(C(=O)O)(CC2)CC3)C(c2cccc(Cl)c2F)C2(C(=O)Nc3cc(Cl)ccc32)C12CCCCC2, the pIC50 (second compound 0.00949 µM) was less than 6.52, the pIC50 (second compound 0.03 µM) was less than 6.52 and the pIC50 (second compound 0.0949 µM) was less than 6.52. The pIC50 (second compound 0.3 µM) was 6.81, the pIC50 (second compound 0.949 µM) was 7.49 and the pIC50 (second compound 3 µM) was 7.82. For the same compound, the viability, T/C (second compound 0.00949 µM, first compound 0.000949 µM) was 94.2%, the viability, T/C (second compound 0.00949 µM, first compound 0.003 µM) was 91.3% and the viability, T/C (second compound 0.00949 µM, first compound 0.00949 µM) was 82.5%. It also gave a viability, T/C (second compound 0.00949 µM, first compound 0.03 µM) of 87.4%, a viability, T/C (second compound 0.00949 µM, first compound 0.0949 µM) of 81% and a viability, T/C (second compound 0.00949 µM, first compound 0.3 µM) of 63.7%. It also gave a viability, T/C (second compound 0.03 µM, first compound 0.000949 µM) of 99.5%, a viability, T/C (second compound 0.03 µM, first compound 0.003 µM) of 92.6% and a viability, T/C (second compound 0.03 µM, first compound 0.00949 µM) of 81%. It also gave a viability, T/C (second compound 0.03 µM, first compound 0.03 µM) of 84.9%, a viability, T/C (second compound 0.03 µM, first compound 0.0949 µM) of 78.8% and a viability, T/C (second compound 0.03 µM, first compound 0.3 µM) of 62.5%. For the same compound, the viability, T/C (second compound 0.0949 µM, first compound 0.000949 µM) was 86.8%, the viability, T/C (second compound 0.0949 µM, first compound 0.003 µM) was 84.9% and the viability, T/C (second compound 0.0949 µM, first compound 0.00949 µM) was 80.7%. The viability, T/C (second compound 0.0949 µM, first compound 0.03 µM) was 78.6%, the viability, T/C (second compound 0.0949 µM, first compound 0.0949 µM) was 70.6% and the viability, T/C (second compound 0.0949 µM, first compound 0.3 µM) was 54.5%. It also gave a viability, T/C (second compound 0.3 µM, first compound 0.000949 µM) of 78.7%, a viability, T/C (second compound 0.3 µM, first compound 0.003 µM) of 75.4% and a viability, T/C (second compound 0.3 µM, first compound 0.00949 µM) of 68.7%. It also gave a viability, T/C (second compound 0.3 µM, first compound 0.03 µM) of 67.5%, a viability, T/C (second compound 0.3 µM, first compound 0.0949 µM) of 51.2% and a viability, T/C (second compound 0.3 µM, first compound 0.3 µM) of 44.5%. For the same compound, the viability, T/C (second compound 0.949 µM, first compound 0.000949 µM) was 68.1%, the viability, T/C (second compound 0.949 µM, first compound 0.003 µM) was 67.3% and the viability, T/C (second compound 0.949 µM, first compound 0.00949 µM) was 61%. For the same compound, the viability, T/C (second compound 0.949 µM, first compound 0.03 µM) was 52.1%, the viability, T/C (second compound 0.949 µM, first compound 0.0949 µM) was 37.8% and the viability, T/C (second compound 0.949 µM, first compound 0.3 µM) was 34.8%. It also gave a viability, T/C (second compound 3 µM, first compound 0.000949 µM) of 66%, a viability, T/C (second compound 3 µM, first compound 0.003 µM) of 63.6% and a viability, T/C (second compound 3 µM, first compound 0.00949 µM) of 56.9%. The viability, T/C (second compound 3 µM, first compound 0.03 µM) was 40%, the viability, T/C (second compound 3 µM, first compound 0.0949 µM) was 30.4% and the viability, T/C (second compound 3 µM, first compound 0.3 µM) was 29%.
`NC1CCC(NC2CC2c2ccccc2)CC1` (stereo unspecified) + CCN1C(C(=O)NC23CCC(C(=O)O)(CC2)CC3)C(c2cccc(Cl)c2F)C2(C(=O)Nc3cc(Cl)ccc32)C12CCCCC2 showed a pIC50 (second compound 0.00949 µM) of less than 7.00, a pIC50 (second compound 0.03 µM) of less than 7.00 and a pIC50 (second compound 0.0949 µM) of less than 7.00. For the same compound, the pIC50 (second compound 0.3 µM) was less than 7.00, the pIC50 (second compound 0.949 µM) was less than 7.00 and the pIC50 (second compound 3 µM) was less than 7.00. For the same compound, the viability, T/C (second compound 0.00949 µM, first compound 0.000316 µM) was 89.9%, the viability, T/C (second compound 0.00949 µM, first compound 0.001 µM) was 76.8% and the viability, T/C [1] was 87.3%. It also gave a viability, T/C [2] of 91.6%, a viability, T/C [3] of 87.1% and a viability, T/C [4] of 89%. The viability, T/C (second compound 0.03 µM, first compound 0.000316 µM) was 88.8%, the viability, T/C (second compound 0.03 µM, first compound 0.001 µM) was 79.3% and the viability, T/C [5] was 83.1%. The viability, T/C [6] was 82.5%, the viability, T/C [7] was 86.2% and the viability, T/C [8] was 75.3%. The viability, T/C (second compound 0.0949 µM, first compound 0.000316 µM) was 84.6%, the viability, T/C (second compound 0.0949 µM, first compound 0.001 µM) was 80.8% and the viability, T/C [9] was 77.1%. It also gave a viability, T/C [10] of 82.8%, a viability, T/C [11] of 82.4% and a viability, T/C [12] of 75.4%. The viability, T/C (second compound 0.3 µM, first compound 0.000316 µM) was 78.2%, the viability, T/C (second compound 0.3 µM, first compound 0.001 µM) was 77.3% and the viability, T/C [13] was 71.5%. For the same compound, the viability, T/C [14] was 79%, the viability, T/C [15] was 74.7% and the viability, T/C [16] was 71.9%. It also gave a viability, T/C (second compound 0.949 µM, first compound 0.000316 µM) of 67.7%, a viability, T/C (second compound 0.949 µM, first compound 0.001 µM) of 71.3% and a viability, T/C [17] of 66.7%. For the same compound, the viability, T/C [18] was 67.2%, the viability, T/C [19] was 71.5% and the viability, T/C [20] was 65.8%. The viability, T/C (second compound 3 µM, first compound 0.000316 µM) was 69.4%, the viability, T/C (second compound 3 µM, first compound 0.001 µM) was 68% and the viability, T/C [21] was 66.5%. The viability, T/C [22] was 65.8%, the viability, T/C [23] was 71% and the viability, T/C [24] was 64.3%.
